Results on 7 molecules are retold here after patent US20100266541A1, “METHODS AND AGENTS FOR […] IMMUNE RESPONSE” (priority 2006, published 2010).

For series [1], the system named is immature DCs. The conditions noted are these: 10 hr of CQ treatment.
Series [2] deals with MDAMC cells. In words: Colocalization of GFP-LC3 with compartment markers by confocal microscopy in MDAMC cells. Type of series: cell-based, human.
Series [3] deals with LC3-II. In words: LC3-II accumulation by anti-LC3 Western blotting. The conditions noted are these: for LC3-II accumulation, density quantification of Western blots: 10 hours of CQ-treatment; for LC3-II accumulation (Western blot, words): 10 hours; for effect on LC3-II levels and hence macroautophagy: 293T, HaCat and MDAMC, 24 h, 1000 U/ml. In kind it is cell-based, human. On the procedure:
Cells were lysed in ice cold lysis buffer (50 mM Tris-HCl pH 8.0, 140 mM NaCl, 1 mM DTT, 1.5 mM MgCl2, 0.5% NP-40 with Complete protease inhibitor cocktail, Roche, Indianapolis, Ind.) for 5 mim on ice (about 10^6 cells/100 μl). Whole cells and cell debris were pelleted by low speed centrifugation (400 g, 3 mil) and cleared supernatants were transferred to a new tube. Protein concentration was determined by BCA protein assay (Pierce, Rockford, Ill.). […] Primary antibodies were visualized with HRP-conjugated goat anti-rabbit IgG (Biorad, Hercules; CA) and the ECLplus detection system (Amersham Biosciences, UK).
This also allowed for extension of the analysis from epithelial cell lines to MHC class II-positive cell types that are more difficult to transfect, such as B cell lines and primary monocytes/dendritic cells. The fact that autophagosome-associated LC3 (called LC3-II) and free cytosolic LC3 (called LC3-I) can be distinguished by their apparent molecular weights in SDS-PAGE gel electrophoresis (16 and 18 lcD, respectively) was used, since it can be quantified separately in anti-LC3 Western blots.
(In general: In western blotting, separated proteins are transferred to a membrane and probed.)

Series [4] deals with GFP-LC3 labeled autophagosomes. In kind it is cell-based, human. Details: accumulation of GFP-LC3-labeled autophagosomes: dose or concentration left out as unconfirmed.
The test system of series [5] is MDAMC cells stably transfected with GFP-LC3. The note with it: CQ-treated versus untreated cells.
Method: MDAMC cells stably transfected with GFP-LC3 were fixed for 1 h at RT with 4% paraformaldehyde (PFA, Electron Microscopy Sciences) in 0.25 M Hepes, pH 7.4, followed by overnight fixation at 4° C. in 8% PFA/Hepes. Cells were washed 1× in PBS, quenched with 0.1 M NH4Cl in PBS for 10 min, scraped into 1% gelatin in PBS and then embedded in 5% gelatin in PBS. Small pieces of the gelatin pellets were infiltrated overnight at 4° C. with 2.3 M sucrose in PBS, mounted onto cryospecimen pins and frozen in liquid nitrogen. […] After quenching with 0.1 M NH4Cl in PBS for 10 min, the grids were incubated for 20 min in a solution of 1% fish skin gelatin (FSG, Sigma-Aldrich) in PBS. They were then labeled with rabbit anti-HLA-DR antiserum C6861 (a gift from Peter Cresswell, Yale University, New Haven, Conn.) in PBS-FSH for 30 min at RT, washed 4× in PBS and then incubated with 10 or 15 nm protein A-gold (purchased from the Department of Cell Biology, University of Utrecht, Netherlands). After 4 more washes in PBS, grids were fixed in 1% glutaraldehyde in PBS for 5 min at RT, washed 5× in PBS and again quenched with 0.1 M NH4Cl in PBS for 10 min. The same labeling procedure was repeated with a rabbit anti-GFP antibody (Invitrogen-Molecular Probes, Carlsbad, Calif.) and after final fixation in 1% glutaraldehyde, grids were washed 8× in HPLC-grade water.
Series [6] has as its system atg12. In words: Knockdown of atg12 by siRNA in MDAMC cells. In kind it is cell-based, human. An excerpt: The following 21-nt siRNA oligos were used:
Atg12 antisense: 5′-[…]dT (SEQ ID NO:6; nt. 687-705 of NM_004707). As a control, lamin A/Cspecific siRNA from Dharmacon (Lamin sense: 5′-CUGGACUUCCAGAAGAACAdTdT (SEQ ID NO:7); Lamin antisense: 5′-UGUUCUUCUGGAAGUCCAGdTdT (SEQ ID NO:8) or firefly luciferase-specific siRNA (GL2 sense: 50-CGUACGCGGAAUACUUCGAdTdT; SEQ ID NO:9; GL2 antisense: 5′-UCGAAGUAUUCCGCGUACGdTdT; SEQ ID NO:10) was used. siRNA duplexes were delivered by transfection with lipofectamine 2000 (Invitrogen) at 30 pmol siRNA+[…] lipofectamine/well in a 24-well format, and effect of knockdown was analyzed after 2-3 days.

Where [7] appears, read: MDAMC cells, CQ 50 μM, E64 28 μM, Leupeptin 40 μM and Pepstatin A 15 μM together.

Square brackets hold non-standard residues; d marks the D form. Peptide text beside a SMILES is read from it. * marks the point of attachment. Sta = CC(C)C[C@H](N)[C@@H](O)CC(=O)O; Isovaleryl = CC(C)CC(=O)*

`CCN(CC)CCCC(C)Nc1ccnc2cc(Cl)ccc12` (stereo not drawn) [chloroquine]: the “MHC class II-labeled compartments positive for GFP-LC3” value in series [1] is reported as 41% (±7%). Also, the “HLA-DM colocalization with GFP-LC3, LSM510 histogram tool” value in series [2] (IFNγ-treated MDAMC, after chloroquine treatment (38 untreated)) worked out at 45%. In series [2] (IFNγ-treated MDAMC, after chloroquine treatment (40 untreated)), the “MHC class II colocalization with GFP-LC3, LSM510 histogram tool” value came out at 44%. Also, in series [2] (IFNγ-treated MDAMC, after chloroquine treatment (52 untreated)), the “HLA-DM+ vesicles colocalized with GFP-LC3, LSM 510 profile tool” value came out at 71%. Besides, the “MHC class II+ compartments colocalized with GFP-LC3, LSM 510 profile tool” value in series [2] (IFNγ-treated MDAMC, after chloroquine treatment (58 untreated)) came to 86%. Moreover, the “EEA1 colocalization with GFP-LC3, histogram analysis” value in series [2] (MDAMC, after chloroquine treatment (7% untreated)) was found to be 21%. The “EEA1 colocalization with GFP-LC3, profile analysis” value in series [2] (MDAMC, after chloroquine treatment (9% untreated)) is 26%. For the same molecule, the “LC3-II accumulation, density quantification of Western blots” value in series [3] (293 cells) is on record as 30 fold; in series [3] (HaCat cells) it was 5 fold; in series [3] (MDAMC cells), 5 fold. Moreover, the “onset of increase of cellular LC3-II levels” value in series [3] (HaCat cell line, time course) is given as “already increased 1 hour after CQ-treatment”. In addition, the “LC3-II accumulation (Western blot, words)” value in series [3] (setting [7]) was “strong accumulation of LC3-II”; in series [3] (epithelial and B cell lines, CD14+ monocytes, dendritic cells), “strongly accumulated”. Also, the “accumulation of GFP-LC3-labeled autophagosomes” value in series [4] (B-LCL, immature and mature DCs, chloroquine for 10 hr) is “strongly accumulated”. Besides, the “accumulation of GFP-LC3 in cytosolic vesicles” value in series [4] (HaCat, HeLa, MDAMC, 293 cell lines, 10 hours of CQ-treatment) is “strongly accumulated in cytosolic vesicles”. Besides, in series [5], the “frequency of GFP-LC3/MHC class II double-labeled multivesicular compartments” value is given as “found much more frequently”.
Take “ATG12 siRNA: 21-nt siRNA duplex against atg12, SEQ ID NO: 5 and 6 (nt. 687-705 of NM_004707) (chain 1 UCAACUUGCUACUACAUGAUDT; chain 2 UCAUGUAGUAGCAAGUUGAUDT; chemistry not fully specified; listed as Homo sapiens)”: in series [6] (MDAMC cells stably expressing GFP-LC3, 2 days after transfection, CQ 6 hr), the “accumulation of GFP-LC3+ vesicles upon CQ treatment after knockdown” value is recorded as “completely abrogates accumulation of these vesicles”. The “colocalization of MP1-LC3-containing vesicles with MHC class II compartments after knockdown” value in series [6] (MDAMC cells stably expressing MP1-LC3, IFNγ 200 U/ml, 50 μM chloroquine last 6 hours) was “completely abrogated”.
For the molecule `CC(C)C[C@H](NC(=O)[C@H]1O[C@@H]1C(=O)O)C(=O)NCCCCN=C(N)N` [E64], the “LC3-II accumulation (Western blot, words)” value in series [3] (setting [7]) was “strong accumulation of LC3-II”.
Still for that read-out and setting: next, `CC(C)CC(=O)N[C@H](C(=O)N[C@H](C(=O)N[C@@H](CC(C)C)[C@@H](O)CC(=O)N[C@@H](C)C(=O)N[C@@H](CC(C)C)[C@@H](O)CC(=O)O)C(C)C)C(C)C` [Pepstatin A] (Isovaleryl-VV[Sta]A[Sta]-OH): “strong accumulation of LC3-II”.
In the case of IFN-α, the “effect on LC3-II levels and hence macroautophagy” value in series [3] is “not affected”.
In the case of `CC(=O)N[C@@H](CC(C)C)C(=O)N[C@@H](CC(C)C)C(=O)N[C@H](C=O)CCCNC(=N)N` [Leupeptin], the “LC3-II accumulation (Western blot, words)” value in series [3] (setting [7]) is “strong accumulation of LC3-II”.
As for IFNγ: Recombinant human IFNγ, the “formation of MHC class II positive compartments” value in series [2] (human epithelial cell lines, IFNγ treatment) was “induced the formation of MHC class II positive compartments”. Further, the “effect on LC3-II levels and hence macroautophagy” value in series [3] is on record as “not affected”.
